Data as given in the NIST ThermoML archive (doi:10.1016/j.tca.2017.08.010).

Experiment: mn = molality of the nth substance listed, in mol/kg
Details: 101 kPa, Liquid, Optical method

With [Cl-].[K+] [potassium chloride] + O the binary diffusion coefficient (298.15 K, m1 = 0.342) was 1.81e-09 m2/s.

Work on CN1c2ccccc2Sc2ccccc21 [10-methylphenothiazine] + COC(=O)OC yielded a binary diffusion coefficient (288.15 K, m1 = 0.023) of 9.16e-10 m2/s, a binary diffusion coefficient (288.15 K, m1 = 0.071) of 6.72e-10 m2/s and a binary diffusion coefficient (288.15 K, m1 = 0.119) of 8.56e-10 m2/s. The binary diffusion coefficient (293.15 K, m1 = 0.023) was 1.11e-09 m2/s, the binary diffusion coefficient (293.15 K, m1 = 0.071) was 8.44e-10 m2/s and the binary diffusion coefficient (293.15 K, m1 = 0.119) was 1.04e-09 m2/s. For the same compound, the binary diffusion coefficient (298.15 K, m1 = 0.023) was 1.32e-09 m2/s, the binary diffusion coefficient (298.15 K, m1 = 0.071) was 1.06e-09 m2/s and the binary diffusion coefficient (298.15 K, m1 = 0.119) was 1.26e-09 m2/s. For the same compound, the binary diffusion coefficient (303.15 K, m1 = 0.023) was 1.54e-09 m2/s, the binary diffusion coefficient (303.15 K, m1 = 0.071) was 1.32e-09 m2/s and the binary diffusion coefficient (303.15 K, m1 = 0.119) was 1.47e-09 m2/s. The binary diffusion coefficient (308.15 K, m1 = 0.023) was 1.79e-09 m2/s, the binary diffusion coefficient (308.15 K, m1 = 0.071) was 1.59e-09 m2/s and the binary diffusion coefficient (308.15 K, m1 = 0.119) was 1.71e-09 m2/s. The binary diffusion coefficient (313.15 K, m1 = 0.023) was 2.07e-09 m2/s, the binary diffusion coefficient (313.15 K, m1 = 0.071) was 1.92e-09 m2/s and the binary diffusion coefficient (313.15 K, m1 = 0.119) was 1.99e-09 m2/s.
